Oligonucleotides are written 5' to 3', each unit as a sugar letter and its base; * is a phosphorothioate linkage, no mark a phosphodiester; rarer units and linkages stand in square brackets, end groups in braces. Plain capitals give the bases only. No end group written: not given here. maleimide = maleimide group (amino-terminal modification); d = 2'-deoxy (DNA); r = 2'-OH (RNA)

In the first series the test system is epithelial monolayers. The series can be described thus: Peptide-mediated changes in trans-epithelial electrical resistance (TEER), permeation across epithelial monolayers. The series is classed as cell-based. The following applies: measured by peptide-mediated changes in TEER.
With “BrAc-GWTLNSAGYLLGKINLKALAALAKKILamide (SEQ ID NO: 3) [PN0064]”, the “Effects (activity to enhance permeation across epithelial monolayers)” value (“Effects” below) is “+”.

With “BrAc-KLALKLALKALKAALKLA-amide (SEQ ID NO: 4) (HELM PEPTIDE1{[O=C(CBr)[*:2]].K.L.A.L.K.L.A.L.K.A.L.K.A.A.L.K.L.A.[am]}$$$$V2.0; SMILES CC(C)C[C@H](NC(=O)[C@H](C)NC(=O)[C@H](CCCCN)NC(=O)[C@H](CC(C)C)NC(=O)[C@H](C)NC(=O)[C@H](CC(C)C)NC(=O)[C@H](CCCCN)NC(=O)[C@H](CC(C)C)NC(=O)[C@H](C)NC(=O)[C@H](CC(C)C)NC(=O)[C@H](CCCCN)NC(=O)CBr)C(=O)N[C@@H](CCCCN)C(=O)N[C@@H](C)C(=O)N[C@@H](C)C(=O)N[C@@H](CC(C)C)C(=O)N[C@@H](CCCCN)C(=O)N[C@@H](CC(C)C)C(=O)N[C@@H](C)C(N)=O) [PN0068]”, the “Effects” value was “+”.

Turning to “GRKKRRQRRRPQ-amide (SEQ ID NO: 5) (GRKKRRQRRRPQ-NH2) [PN0069]”, the “Effects” value is reported as “−”.

For the substance “Maleimide-GLGSLLKKAGKKLKQPKSKRKV-amide (SEQ ID NO: 12) (maleimide-GLGSLLKKAGKKLKQPKSKRKV-NH2) [PN283]”, the “Effects” value was “+”.

“NH2-AAVALLPAVLLALLAPRKKRRQRRRPPQ-amide (SEQ ID NO: 8) (H-AAVALLPAVLLALLAPRKKRRQRRRPPQ-NH2) [PN027]”: the “Effects” value was “+”.

For the substance “NH2-KETWWETWWTEWSQPGRKKRRQRRRPPQ-amide (SEQ ID NO: 11) (H-KETWWETWWTEWSQPGRKKRRQRRRPPQ-NH2) [PN183]”, the “Effects” value was “+”.

In the case of “NH2-LLETLLKPFQCRICMRNFSTRQARRNHRRRHRR-amide (SEQ ID NO: 9) (H-LLETLLKPFQCRICMRNFSTRQARRNHRRRHRR-NH2; cysteine pairing not given here) [PN202]”, the “Effects” value is “+”.

In the case of “NH2-RRRQRRKRGGDIMGEWGNEIFGAIAGFLG-amide (SEQ ID NO: 10) (H-RRRQRRKRGGDIMGEWGNEIFGAIAGFLG-NH2; listed as Influenza virus) [PN250]”, the “Effects” value is “+”.

As to “RKKRRQRRRPPQCAAVALLPAVLLALLAP-amide (SEQ ID NO: 1) (RKKRRQRRRPPQCAAVALLPAVLLALLAP-NH2) [PN0028]”, the “Effects” value is given as “+”.

For the substance “RQIKIWFQNRRMKWKK-amide (SEQ ID NO: 2) (RQIKIWFQNRRMKWKK-NH2) [PN0058]”, the “Effects” value was “+”.

As for RRRRRRR (SEQ ID NO: 6) [PN0071], the “Effects” value is given as “−”.

The subject of another series is beta-galactosidase mRNA. The series can be described thus: Transfection of 9L/LacZ cells with siRNA and lipofectamine, beta-Gal/BCA assay (silencing of beta-galactosidase). The series is classed as cell-based. The following applies: 9L/beta-gal cells, transfected with lipofectamine; control = cells transfected by lipofectamine alone; lower = greater efficacy. The method, then:
Transfection of 9L/LacZ Cells:
• a) Take saturated 9L/LacZ culture from T75 flask, detach cell and dilute into 10 ml with complete medium (DMEM, 1× PS, 1× Na Pyruvate, 1× NEAA). • b) Further dilute the cell to 1:15, and seed 100 μl into each 96 well, which should give 50% confluence cell the next day for transfection. […] Flow Cytometry Measurement of FITC/FAM Conjugated siRNA • a) After transfection, incubate cell for at least 3 hours. • b) Wash with 200 μl PBS. • c) Detach cell with 15 μl TE, incubate at 37° C. • d) Re-suspend five wells with 30 μl FACS solution (PBS with 0.5% BSA, and 0.1% sodium Azide) • e) Combine all five wells into a tube. • f) Add PI 5 μl into each tube. • g) Analyze the cells with fluorescence activated cell sorting (FCAS) with BD FACscan instrument according to manufacture's instruction.
The transfection was performed with either regular siRNA or cholesterol-conjugated siRNA with lipofectamine (Invitrogen) on 9L/beta-gal cells. The siRNA was designed to specifically knock down beta-galactosidase mRNA and activities are expressed as percentage of beta-gal activities from control (transfected cells by lipofectamine alone). […]
For the substance “AA: siRNA construct with no cholesterol conjugated to any of the ends of the sense or antisense RNA strands (SEQ ID NO: 14/15) (sense rCrUrArCrArCrArArArUrCrArGrCrGrArUrUrUdTdT; antisense rArArArUrCrGrCrUrGrArUrUrUrGrUrGrUrArGdTdT)”, the “Activity (% of control): beta-galactosidase activity remaining after the transfection” value is 23.12 % of control.

Values taken from US8940857B2, “Methods and compositions for enhancing delivery of double-stranded RNA or a double-stranded hybrid nucleic acid to regulate gene expression in mammalian cells” (Marina Biotech, Inc., priority 2004, dated 2015).
